The record followed here is patent US20240327459A1, “PEPTIDE FRAGMENTS FOR TREATMENT OF DIABETES” (Follicum AB, priority 2018, published 2024).

“Also recorded” adds a separate entry of the source. Where no end group is shown, it is not given here.

The subject of test [1] is mouse pancreatic islets. As to the kind of experiment: Insulin secretion from isolated mouse pancreatic islets (Examples 5 and 7). The format is cell-based. To be noted: 60 min. How it is done:
Mouse pancreatic islets were isolated from 8-week old C57BL/6J male mice (Taconic). Mice were sacrificed by an overdose of isoflurane and cervical dislocation. 3 ml of 0.9 U/ml collagenase P was injected into the pancreatic duct to inflate the pancreas. The Pancreas was then removed and collagen digested for 19 min at 37° C. The samples Were vigorously shaken to disrupt the tissue. The digest was transferred into ice cold Hank's Balanced Salt Solution (HBSS) with Ca^2+ and Mg^2+. The suspension was allowed to sit for 10 min to allow the islet to sink, and the islets were washed in fresh HBSS four times. The islets were then hand-picked and sorted according to size. Islets (n=3 per well in a 96 well plate) were pre-incubated in KRB buffer during 10 min 37° C., pH 7.4, supplemented with 10 mM HEPES, 0.1% bovine serum albumin. After pre-incubation, the buffer was changed and islets were incubated at different test conditions in new KRB buffer with 0.1% bovine serum albumin (non-treated ctrl, FOL-005 peptide, or GLP-1) for 60 min at 37° C. Immediately after incubation, an aliquot of the buffer was removed and frozen for subsequent assay of insulin.
Mouse pancreatic islets were isolated from 8-week old C57BL/6J male mice as described under example 5. The islets were then hand-picked and sorted according to size. Islets (n=5 per well in a 96 well plate) were pre-incubated in 200 μl KRB buffer during 10 min 37° C., pH 7.4, supplemented with 10 mM HEPES, 0.1% bovine serum albumin. Following pre-incubation, the buffer was changed and islets were incubated in different test conditions in new KRB buffer with 0.1% bovine serum albumin (non-treated ctrl, FOL-014 peptide, and GLP-1) for 60 min at 37° C. Immediately after incubation, an aliquot of the buffer was removed and frozen for subsequent assay of insulin.

In test [2] the test system is isolated mouse islets. As to the kind of experiment: Insulin and glucagon secretion from isolated mouse islets (Example 12). The format is cell-based. To be noted: 100 nM. How it is done: Twelve-week-old male C57/bl6 mice were euthanized with isoflurane and cervical dislocation. After clamping the hepatic ducts, 3 ml of 0.9 U/ml collagenase P was injected into the bile duct to inflate the pancreas. The pancreas was then removed and digested for 19 min at 37° C. The samples were vigorously shaken to disrupt the tissue. The digest was quickly transferred into ice cold Hank's Balanced Salts Solution with Ca^2+ and Mg^2+. The suspension was allowed to sit for 8 min to allow the islet to sink, and the islets were washed in the same manner four times. The islets were then handpicked and sorted according to size.
Freshly isolated islets were seeded in groups of 5 in a 96-well plate and preincubated for 1 h at 37° C. in a Krebs-Ringer bicarbonate buffer (pH 7.4). The islets were incubated for 1 h at 37° C. in Krebs-Ringer buffered solution supplemented with 0.6 or 6 μM FOL-014 or 100 nM GLP-1 or left unsupplemented for control. Immediately after incubation, the medium was removed for assays of insulin and glucagon using Mercodia's ELISA kits. The effect of FOL-014 on insulin (FIGS. 8A and B) and glucagon (FIGS. 8C and D) secretion from isolated mouse islets was measured in the presence of low glucose (2.8 mM; FIGS. 8A and C) or high glucose (16.7 mM; FIGS. 8B and D) concentrations.

In test [3] the test system is INS-1 cells. As to the kind of experiment: Proliferation of INS-1 cells ([methyl-3H] thymidine incorporation). The format is cell-based, rat. On the procedure:
To investigate if FOL-005 and FOL-014 could induce proliferation of β-cells we used INS-1 cells. Rat INS-1 cells were seeded in 96-well plates in RPMI medium with supplement and after 2 hours the medium was changed to RPMI without supplement. During the proliferation experiment the cells were incubated at different test conditions (FOL-005, FOL-014, coated or in solution, 48 h incubation) and during the last 20 hours of culture period the cells were pulsed with 1 μ Ci/well of [methyl-3H] thymidine. The cells were then harvested onto glass fiber filters using a FilterMate harvester. The filters were air dried, and the bound radioactivity was measured using a liquid scintillation counter. To study whether FOL-005 influenced β-cell proliferation, INS-1 cells were treated with increasing amounts of soluble FOL-005 (0.06-6 μM) during 48 hours and proliferation was measured with radiolabeled thymidine incorporation into newly synthesized DNA.

Test [4] relates to INS-1 cells. Description: Glucotoxicity-induced apoptosis of INS-1 cells (Annexin V staining, caspase-3 activity). The format is cell-based, rat. Particulars: 20 mM glucose, 48 h, vs 20 mM glucose alone. On the procedure: Since glucotoxicity in pancreatic β-cells is a well-established process in type 2 diabetes we next investigated the protective effects of FOL-005 on β-cells during glucotoxic conditions. First we confirmed that 20 mM glucose induced cell apoptosis in INS cells after 48 h of exposure. High glucose (20 mM) containing RPMI medium induced more Annexin V positive cells and more caspase-3 activity in INS cells compared to cells incubated with medium containing 5 mM glucose (FIG. 2A-B). […] The rate of apoptosis in INS-1 cells was measured with either Caspase-3 Assay Kit or stained with Annexin V Apoptosis Detection Kit with 7-AAD. Caspase-3 activity was measured with fluorescence at an excitation wavelength of 380 nm and an emission wavelength of 440 nm. Caspase-3 activity was then normalized to protein concentration in each well. Measurements of
Annexin V stained cells were performed using a CyAn ADP flow cytometer and analyzed with Summit V4.3 software.

The subject of test [5] is INS-1 β-cells. Description: Insulin secretion from INS-1 cells (Examples 4 and 6). The format is cell-based, rat. To be noted: 6 μM peptide. On the procedure: To investigate the stimulatory effect of FOL-005 on insulin secretion, INS-1 β-cells were used in the following experiments. Cells were seeded overnight in cRPMI and then washed with PBS before pre-incubation for 60 min at 37° C. in Krebs-Ringer bicarbonate buffer (KRB), pH 7.4, supplemented with 10 mM HEPES, 0.1% bovine serum albumin. After pre-incubation, the buffer was changed and the INS-1 cells were incubated at different test conditions (0 mM, 5 mM or 20 mM glucose) and stimulated with peptide FOL-005 or FOL-015 (SEQ ID NO: 158) or left untreated during 60 min at 37° C. Immediately after incubation, an aliquot of the buffer was removed and frozen for subsequent assay of insulin with an insulin radioimmunoassay kit.
INS-1 β-cells were used to investigate the stimulatory effect of FOL-014 on insulin secretion. Cells were seeded overnight and then washed with PBS before pre-incubation for 60 min at 37° C. in Krebs-Ringer bicarbonate buffer (KRB), pH 7.4, supplemented with 10 mM HEPES, 0.1% bovine serum albumin. After pre-incubation, the buffer was changed and the INS-1 cells were incubated in new KRB buffer supplemented with 10 mM HEPES, 0.1% bovine serum albumin and stimulated with peptide FOL-014 or left untreated during 60 min at 37° C. Immediately after incubation, an aliquot of the buffer was removed and frozen for subsequent assay of insulin.

In test [6] the test system is INS-1E cells. As to the kind of experiment: Insulin secretion by novel peptide analogues (Example 21, FIG. 16). Particulars: 100 nM peptide, high glucose buffer, vs un-supplemented high glucose buffer. The format is cell-based, rat. How it is done: Materials and methods: Rat INS-1 β-cells (passages 60-70) were cultured at 37° C. and 5% CO2 in cRPMI media (RPMI 1640 supplemented with 10% fetal bovine serum, 50 IU/mL penicillin, 50 mg/L streptomycin, 10 mM HEPES, 2 mM L-glutamine, 1 mM sodium pyruvate, and 50 μM beta-mercaptoethanol) unless otherwise stated. INS-1 cells were seeded in 96-well plates (2×10^3 cells/well) in cRPMI medium and following overnight incubation, the cells were washed in PBS before pre-incubation for 120 min at 37° C. in Krebs-Ringer bicarbonate buffer, pH 7.4, supplemented with 10 mM HEPES, 0.1% bovine serum albumin and 2.8 mM glucose. Following pre-incubation, the buffer was exchanged with fresh Krebs-Ringer buffer as described above and supplemented with specific glucose concentrations and peptides for the individual experiments as described below. Immediately after 60 minutes incubation at 37° C., an aliquot of the buffer was removed and frozen for subsequent insulin ELIZA assay.
In order to correct for the variance between experiments, all values were normalized to, and expressed as percentage of the average value of the high glucose control in the individual experiments. The analogues were subsequently ranked according to performance (FIG. 16).

Consider “GLP-1: native glucagon-like peptide-1, metabolic hormone that stimulates insulin secretion; comparator (HAEGTFTSDVSSYLEGQAAKEFIAWLVKGR; ends and bridges not checked; UniProt P01275 98-127, looked up) [reference compound]”, for which the insulin secretion entry was “secreted more insulin compared to unstimulated control islets” in test [1] (Example 5, 100 nM, vs unstimulated control islets); “did not affect insulin secretion; also recorded: had no effect on insulin secretion” in test [1] (Example 7, 100 nM); “significantly increased insulin secretion” in test [2] (high glucose (16.7 mM)); “enhanced insulin secretion also in low glucose samples” in test [2] (low glucose (2.8 mM)). The glucagon secretion entry in test [2] (high glucose (16.7 mM)) is reported as “efficiently reduced glucagon secretion”; in test [2] (low glucose (2.8 mM)) it was “failed to inhibit glucagon secretion in low glucose conditions”.

Turning to “VDTYDGDISVVYGLR (MISC_FEATURE - peptide, FOL-005)”, the insulin secretion entry in test [1] (Example 5, 6 μM, vs unstimulated control islets) is listed as “secreted more insulin compared to unstimulated control islets”. The “proliferation of INS-1 cells” value is on record as “stimulated INS-1 cell proliferation; also recorded: induced increasing proliferation of INS-1 cells” in test [3] (peptide in solution, 0.06-6 μM, 48 hours); “stimulated proliferation compared to control; also recorded: induced more proliferation of β-cells compared to only BSA coated control” in test [3] (wells coated with peptide and blocked with BSA, vs BSA coated control wells). The “apoptotic cells (Annexin V positive)” value in test [4] is listed as “decreased cell apoptosis; also recorded: reduced the level of apoptotic cells compared to 20 mM glucose alone”. For the same substance, the caspase-3 activity result in test [4] is given as “decreased cell apoptosis; also recorded: diminished the rate of glucotoxicity-induced caspse-3 activity”. In addition, the “insulin secretion at 20 mM glucose compared with 5 mM glucose” value in test [5] is listed as “responded with more insulin secretion compared to FOL-005 stimulated cells incubated with 5 mM glucose”. Also, the insulin release result in test [5] (5 mM or 20 mM glucose) was “responded with insulin secretion; also recorded: stimulated insulin release”; in test [5] (non glucose containing media, 60 min, vs unstimulated control and FOL-015), “secreted more insulin compared to unstimulated control cells or to cells stimulated with the FOL-015 control peptide; also recorded: increased”.

“DSIELSYGIK (MISC_FEATURE - peptide) [FOL-059]”: in test [6], the insulin secretion entry is “increased the insulin secretion as compared with cells treated with an un-supplemented high glucose buffer”.

Regarding “EIDSIELSYGIK (MISC_FEATURE - peptide) [FOL-057]”, the insulin secretion entry in test [6] is “increased the insulin secretion as compared with cells treated with an un-supplemented high glucose buffer”.

With “IDSIELSYGIK (MISC_FEATURE - peptide) [FOL-058]”, the insulin secretion entry in test [6] is reported as “increased the insulin secretion as compared with cells treated with an un-supplemented high glucose buffer”.
